Like-named read-outs stand apart in the source and are kept apart here.
Legend:
Assay in all cases: NCI SRB assay
Type in all cases: cell-based, human
NCI-H226 = tested on: NCI-H226
NCI-H522 = tested on: NCI-H522
HCT-15 = tested on: HCT-15
SK-MEL-5 = tested on: SK-MEL-5
PC-3 = conditions: for CC50: read-out: LC50 (the source's name)
DU-145 = conditions: for CC50: read-out: LC50 (the source's name)
HL-60(TB) = conditions: for CC50: read-out: LC50 (the source's name)
SNB-75 = conditions: for CC50: read-out: LC50 (the source's name)
OVCAR-3 = tested on: OVCAR-3
SF-295 = conditions: Homo sapiens, SF-295, 5-dose
[1] = Homo sapiens, NCI-H522, NCI-H522, 5-dose
[2] = Homo sapiens, HCT-15, HCT-15, 5-dose
[3] = Homo sapiens, SNB-75, SNB-75, 5-dose

## Cc1ccc(-c2nc(Nc3ccccc3C(=O)O)c3ccccc3n2)cc1 [6b, 2-((2-(p-Tolyl)quinazolin-4-yl)amino)benzoic acid]
NCI-H226; Homo sapiens, NCI-H226, NCI-H226, 5-dose
  LC50: > 100 µM
NCI-H226; Homo sapiens, NCI-H226, 5-dose
  GI50: 10.2 µM
NCI-H226; NCI-H226, 10 μM
  GI%: 85%
NCI-H226; NCI-H226, 1.00E-5 Molar
  Growth Percent: 15.34%
NCI-H226; NCI-H226, 5-dose
  LC50: < 100 µM
  TGI: 54.2 µM
NCI-H226; NCI-H226, 5-dose, listed as D - 835857
  TGI: 5.42E-5 Molar
NCI-H522; [1]
  GI50: 4.35 µM
  LC50: > 100 µM
NCI-H522; NCI-H522, 10 μM
  GI%: 67%
NCI-H522; NCI-H522, 1.00E-5 Molar
  Growth Percent: 33.17%
NCI-H522; NCI-H522, 5-dose
  GI50: 4.4 µM
  LC50: < 100 µM
  TGI: 27.1 µM
NCI-H522; NCI-H522, 5-dose, listed as D - 835857
  TGI: 2.71E-5 Molar
HCT-15; HCT-15, 10 μM
  GI%: 95%
HCT-15; HCT-15, 1.00E-5 Molar
  Growth Percent: 4.66%
HCT-15; HCT-15, 5-dose
  GI50: 5.8 µM
  LC50: < 100 µM
  TGI: 28.7 µM
HCT-15; HCT-15, 5-dose, listed as D - 835857
  TGI: 2.87E-5 Molar
HCT-15; [2]
  GI50: 5.82 µM
  LC50: > 100 µM
SK-MEL-5; Homo sapiens, SK-MEL-5, SK-MEL-5, 5-dose
  GI50: 5.32 µM
SK-MEL-5; Homo sapiens, SK-MEL-5, 5-dose, read-out: LC50 (the source's name)
  CC50: 57.5 µM
SK-MEL-5; SK-MEL-5, 10 μM
  GI%: 124%
SK-MEL-5; SK-MEL-5, 1.00E-5 Molar
  Growth Percent: -24.79%
SK-MEL-5; SK-MEL-5, 5-dose
  GI50: 5.3 µM
  TGI: 20.3 µM
SK-MEL-5; SK-MEL-5, 5-dose, listed as D - 835857
  TGI: 2.03E-5 Molar
PC-3; Homo sapiens, PC-3, PC-3, 5-dose
  CC50: > 100 µM
PC-3; Homo sapiens, PC-3, 5-dose
  GI50: 12.7 µM
PC-3; PC-3, 10 μM
  GI%: 84%
PC-3; PC-3, 1.00E-5 Molar
  Growth Percent: 15.75%
PC-3; PC-3, 5-dose
  TGI: <100 µM
  CC50: < 100 µM
PC-3; PC-3, 5-dose, listed as D - 835857
  TGI: > 1.00E-4 Molar
DU-145; DU-145, 10 μM
  GI%: 81%
DU-145; DU-145, 1.00E-5 Molar
  Growth Percent: 19.37%
DU-145; DU-145, 5-dose
  TGI: <100 µM
  CC50: < 100 µM
DU-145; DU-145, 5-dose, listed as D - 835857
  TGI: > 1.00E-4 Molar
DU-145; Homo sapiens, DU-145, DU-145, 5-dose
  CC50: > 100 µM
DU-145; Homo sapiens, DU-145, 5-dose
  GI50: 17.7 µM
HL-60(TB); HL-60(TB), 10 μM
  GI%: 82%
HL-60(TB); HL-60(TB), 1.00E-5 Molar
  Growth Percent: 17.80%
HL-60(TB); HL-60(TB), 5-dose
  TGI: 75.4 µM
  CC50: < 100 µM
HL-60(TB); HL-60(TB), 5-dose, listed as D - 835857
  TGI: 7.54E-5 Molar
HL-60(TB); Homo sapiens, HL-60, HL-60(TB), 5-dose
  CC50: > 100 µM
HL-60(TB); Homo sapiens, HL-60(TB), 5-dose
  GI50: 12.9 µM
SNB-75; [3]
  GI50: 1.36 µM
  CC50: > 100 µM
SNB-75; SNB-75, 10 μM
  GI%: 84%
SNB-75; SNB-75, 1.00E-5 Molar
  Growth Percent: 15.71%
SNB-75; SNB-75, 5-dose
  GI50: 1.4 µM
  TGI: 80.3 µM
  CC50: < 100 µM
SNB-75; SNB-75, 5-dose, listed as D - 835857
  TGI: 8.03E-5 Molar
OVCAR-3; Homo sapiens, OVCAR-3, 5-dose
  GI50: 13.1 µM
OVCAR-3; Homo sapiens, OVCAR-3, 5-dose, read-out: LC50 (the source's name)
  CC50: > 100 µM
OVCAR-3; OVCAR-3, 10 μM
  GI%: 94%
OVCAR-3; OVCAR-3, 1.00E-5 Molar
  Growth Percent: 6.01%
OVCAR-3; OVCAR-3, 5-dose
  TGI: 5.13E-5 Molar
SF-295
  GI50: 7.04 µM
SF-295; read-out: LC50 (the source's name)
  CC50: 86 µM

From paper PMC10035947, “Development of novel anilinoquinazoline-based carboxylic acids as non-classical carbonic anhydrase IX and XII inhibitors” (Journal of Enzyme Inhibition and Medicinal Chemistry, 2023)
